In patent US10364256B2 (GlaxoSmithKline Intellectual Property Development Limited, priority 2015, dated 2019):
Like-named read-outs stand apart in the source and are kept apart here.

Legend:
[1] = target: T1, Keap1 Kelch domain (321-609) / TAMRA-labeled 16mer NRF2 peptide (ETGE motif) (Homo sapiens, UniProt Q14145); assay: NRF2-Keap1 FP Assay (Keap1 Kelch fluorescence polarization); type: binding; details: 20 nM Keap1 (321-609), 8 nM Tamra labeled peptide
T1 construct: the Kelch domain (321-609) of Keap1 is used
T1 sequence (Q14145 321-609): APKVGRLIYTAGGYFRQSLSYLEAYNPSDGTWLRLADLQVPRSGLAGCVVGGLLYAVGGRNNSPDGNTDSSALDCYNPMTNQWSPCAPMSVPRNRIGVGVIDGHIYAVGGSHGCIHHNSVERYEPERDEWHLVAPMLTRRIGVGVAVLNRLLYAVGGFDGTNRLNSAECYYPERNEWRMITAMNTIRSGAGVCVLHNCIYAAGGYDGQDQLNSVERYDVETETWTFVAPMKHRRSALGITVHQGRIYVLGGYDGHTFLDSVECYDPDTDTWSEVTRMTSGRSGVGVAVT
How it was run: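 Compound dilutions (3-fold) were incubated 1 hr at room temperature with 20 nM Keap1 Kelch (321-609) and 8 nM TAMRA-labeled ETGE 16mer peptide. Buffer was 50 mM Tris pH 8.0, 100 mM NaCl, 5 mM MgCl2, 1 mM DTT, 2 mM CHAPS, 0.005% BSA. Fluorescence polarization (mP) was normalized to controls and fitted with a four-parameter equation to give pIC50.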

[2] = system: NQO1 specific enzyme activity in BEAS-2B cells (marker for NRF2 activation); assay: BEAS-2B NQO1 MTT Assay; type: cell-based; details: Homo sapiens, compound incubated 48 hours, read-out: EC50 (NQO1 specific enzyme activity induction)
How it was run: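 BEAS-2B cells treated with compound for 48 h at 37 °C, then lysed; NQO1 activity in lysates measured kinetically by MTT reduction at A570 over 30 min. pEC50 from 3-parameter fit of ΔOD/min versus log concentration; lysate also taken for Cell Titer Glo.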

| Compound | IC50 [1] | EC50 [2] | EC50 ([2]; BEAS-2B, 48 h) |
| --- | --- | --- | --- |
| CC(Oc1cccc(-c2cccc(-n3ncc(C(=O)O)c3[C@H]3C[C@@H]3c3cn(C)nn3)c2)c1)C1CCCCCC1 (mixture of isomers) [Example 230, 1-(3′-(1-Cycloheptylethoxy)-[1,1′-biphenyl]-3-yl)-5-((1,2-trans)-2-(1-methyl-1H-1,2,3-triazol-4-yl)cyclopropyl)-1H-pyrazole-4-carboxylic acid] | 10 to 100 nM | 1 to 10 nM |  |
| Cc1nn(-c2cccc(-c3cccc(OCC4CCCCC4)c3)c2)c(C2CC2c2cn(C)nn2)c1C(=O)O (stereo not drawn) [Example 188, 1-(3′-(cyclohexylmethoxy)-[1,1′-biphenyl]-3-yl)-3-methyl-5-(2-(1-methyl-1H-1,2,3-triazol-4-yl)cyclopropyl)-1H-pyrazole-4-carboxylic Acid] | 100 to 1000 nM | 100 to 1000 nM |  |
| Cn1cc([C@@H]2C[C@H]2c2c(C(=O)O)cnn2-c2cccc(-c3cccc(OCC4CCSCC4)c3)c2)nn1 (racemic) [Example 149, 5-((1,2-trans)-2-(1-Methyl-1H-1,2,3-triazol-4-yl)cyclopropyl)-1-(3′-((tetrahydro-2H-thiopyran-4-yl)methoxy)-[1,1′-biphenyl]-3-yl)-1H-pyrazole-4-carboxylic acid] | 100 to 1000 nM | 100 to 1000 nM |  |
| Cn1cc([C@@H]2C[C@H]2c2c(C(=O)O)cnn2-c2cccc(-c3cccc(OCC4CCCSC4)c3)c2)nn1 (mixture of isomers) [Example 144, 5-((1,2-trans)-2-(1-Methyl-1H-1,2,3-triazol-4-yl)cyclopropyl)-1-(3′-((tetrahydro-2H-thiopyran-3-yl)methoxy)-[1,1′-biphenyl]-3-yl)-1H-pyrazole-4-carboxylic Acid] | 10 to 100 nM | 10 to 100 nM |  |
| Cn1cc(C2CC2c2c(C(=O)O)cnn2-c2cccc(-c3cccc(OCC4CCCCC4)c3)c2)nn1 (stereo not drawn) [Example 164, 1-(3′-(Cyclohexylmethoxy)-[1,1′-biphenyl]-3-yl)-5-(2-(1-methyl-1H-1,2,3-triazol-4-yl)cyclopropyl)-1H-pyrazole-4-carboxylic acid] | 10 to 100 nM | 10 to 100 nM |  |
| O=C(O)c1cnn(-c2cccc(-c3cccc(C(=O)N(CC4CCCC4)CC4CC4)c3F)c2)c1C1CC1 [Example 14, 1-(3-{3-[(Cyclopentylmethyl)(cyclopropylmethyl)carbamoyl]-2-fluorophenyl}phenyl)-5-cyclopropyl-1H-pyrazole-4-carboxylic Acid] | 10 to 100 nM | 100 to 1000 nM |  |
| CCC[C@@H]1CCCCN1C(=O)c1cccc(-c2cccc(-n3ncc(C(=O)O)c3[C@@H]3C[C@H]3c3cn(C)nn3)c2)c1 [Example 51h, 5-[(1R,2R)-2-(1-methyl-1H-1,2,3-triazol-4-yl)cyclopropyl]-1-(3-{3-[(2R)-2-propylpiperidine-1-carbonyl]phenyl}phenyl)-1H-pyrazole-4-carboxylic Acid] | 10 to 100 nM |  | 10 to 100 nM |
| Cn1cc([C@H]2C[C@@H]2c2c(C(=O)O)cnn2-c2cccc(-c3cccc(OCc4ccc(-c5ccccc5)cc4)c3)c2)nn1 (racemic) [Example 237, 1-(3′-([1,1′-Biphenyl]-4-ylmethoxy)-[1,1′-biphenyl]-3-yl)-5-((1,2-trans)-2-(1-methyl-1H-1,2,3-triazol-4-yl)cyclopropyl)-1H-pyrazole-4-carboxylic Acid] | 100 to 1000 nM | 100 to 1000 nM |  |
| CCCC1CCCCN1C(=O)c1cccc(-c2cccc(-n3ncc(C(=O)O)c3C3CC3)c2)c1F (stereo not drawn) [Example 17, 5-Cyclopropyl-1-{3-[2-fluoro-3-(2-propylpiperidine-1-carbonyl)phenyl]phenyl}-1H-pyrazole-4-carboxylic Acid] | 10 to 100 nM | 100 to 1000 nM |  |
| Cn1cc([C@@H]2C[C@H]2c2c(C(=O)O)cnn2-c2cccc(-c3cccc(OCC4CCCCC4)c3)c2)nn1 [Example 171, 1-(3′-(Cyclohexylmethoxy)-[1,1′-biphenyl]-3-yl)-5-((1R,2R)-2-(1-methyl-1H-1,2,3-triazol-4-yl)cyclopropyl)-1H-pyrazole-4-carboxylic acid] | 10 to 100 nM | 10 to 100 nM |  |
| CCC[C@@H]1CCCCN1C(=O)c1cccc(-c2cc(C)cc(-n3ncc(C(=O)O)c3[C@@H]3C[C@H]3c3cn(C)nn3)c2)c1 (single isomer, unassigned) [Example 155] | 10 to 100 nM |  | 100 to 1000 nM |
| CC(Oc1cccc(-c2cccc(-n3ncc(C(=O)O)c3C3CC3c3cn(C)nn3)c2)c1)C1CCCC1 (stereo not drawn) [Example 228, 1-(3′-(1-Cyclopentylethoxy)-[1,1′-biphenyl]-3-yl)-5-(2-(1-methyl-1H-1,2,3-triazol-4-yl)cyclopropyl)-1H-pyrazole-4-carboxylic acid] | 10 to 100 nM | 1 to 10 nM |  |
| CC(Oc1cccc(-c2cccc(-n3ncc(C(=O)O)c3[C@H]3C[C@@H]3c3cn(C)nn3)c2)c1)C1CCCCC1 (stereo partly drawn) [Example 165, 1-(3′-(1-Cyclohexylethoxy)-[1,1′-biphenyl]-3-yl)-5-((1S,2S)-2-(1-methyl-1H-1,2,3-triazol-4-yl)cyclopropyl)-1H-pyrazole-4-carboxylic acid] | 10 to 100 nM |  | 1 to 10 nM |
| CCC[C@@H]1CCCCN1C(=O)c1cccc(-c2cccc(-n3ncc(C(=O)O)c3C3CC3c3cn(C)nn3)c2)c1F (stereo partly drawn) [Example 57, 1-(2′-Fluoro-3′-((R)-2-propylpiperidine-1-carbonyl)-[1,1′-biphenyl]-3-yl)-5-(2-(1-methyl-1H-1,2,3-triazol-4-yl)cyclopropyl)-1H-pyrazole-4-carboxylic Acid] | 10 to 100 nM |  | 10 to 100 nM |
| CC(Oc1cccc(-c2cccc(-n3ncc(C(=O)O)c3[C@H]3C[C@@H]3c3cn(C)nn3)c2)c1)c1cccc(-c2ccccc2)c1 (mixture of isomers) [Example 239, 1-(3′-(1-([1,1′-Biphenyl]-3-yl)ethoxy)-[1,1′-biphenyl]-3-yl)-5-((1,2-trans)-2-(1-methyl-1H-1,2,3-triazol-4-yl)cyclopropyl)-1H-pyrazole-4-carboxylic Acid] | 100 to 1000 nM | 100 to 1000 nM |  |
| Cn1cc(C2CC2c2c(C(=O)O)cnn2-c2cccc(-c3cccc(-n4ncc5c4C(C)(C)CC5)c3)c2)nn1 (stereo not drawn) [Example 212, 1-(3′-(6,6-Dimethyl-5,6-dihydrocyclopenta[c]pyrazol-1(4H)-yl)-[1,1′-biphenyl]-3-yl)-5-(2-(1-methyl-1H-1,2,3-triazol-4-yl)cyclopropyl)-1H-pyrazole-4-carboxylic Acid] | 10 to 100 nM | 100 to 1000 nM |  |
| Cn1cc([C@@H]2C[C@H]2c2c(C(=O)O)cnn2-c2cccc(-c3cncc(OCC4CCCCC4)c3)c2)nn1 (racemic) [Example 246, 1-(3-(5-(Cyclohexylmethoxy)pyridin-3-yl)phenyl)-5-(trans-2-(1-methyl-1H-1,2,3-triazol-4-yl)cyclopropyl)-1H-pyrazole-4-carboxylic Acid] | 100 to 1000 nM | 1000 to 10000 nM |  |
| CC(Oc1cccc(-c2cccc(-n3ncc(C(=O)O)c3[C@H]3C[C@@H]3c3cn(C)nn3)c2)c1)C1CCCCC1 (single isomer, unassigned) [Example 191] | 100 to 1000 nM |  | 100 to 1000 nM |
| Cn1cc(C2CC2c2c(C(=O)O)cnn2-c2cccc(-c3cccc(OCc4cccc(F)c4)c3)c2)nn1 (stereo not drawn) [Example 224, 1-(3′-((3-Fluorobenzyl)oxy)-[1,1′-biphenyl]-3-yl)-5-(2-(1-methyl-1H-1,2,3-triazol-4-yl)cyclopropyl)-1H-pyrazole-4-carboxylic acid] | 100 to 1000 nM | 100 to 1000 nM |  |
| Cn1cc(C2CC2c2c(C(=O)O)cnn2-c2cccc(-c3cccc(OC4CCCN(C(=O)OC(C)(C)C)C4)c3)c2)nn1 (stereo not drawn) [Example 232, 1-(3′-((1-(tert-Butoxycarbonyl)piperidin-3-yl)oxy)-[1,1′-biphenyl]-3-yl)-5-(2-(1-methyl-1H-1,2,3-triazol-4-yl)cyclopropyl)-1H-pyrazole-4-carboxylic acid] | 100 to 1000 nM | 100 to 1000 nM |  |
| Cn1cc([C@H]2C[C@@H]2c2c(C(=O)O)cnn2-c2cccc(-c3cccc(-n4ncc5c4C(C)(C)CC5)c3)c2)nn1 (stereo in doubt) [Example 208, 1-(3′-(6,6-Dimethyl-5,6-dihydrocyclopenta[c]pyrazol-1(4H)-yl)-[1,1′-biphenyl]-3-yl)-5-((1S,2S)-2-(1-methyl-1H-1,2,3-triazol-4-yl)cyclopropyl)-1H-pyrazole-4-carboxylic Acid] | 10 to 100 nM | 10 to 100 nM |  |
| COC(c1cccc(-c2cccc(-n3ncc(C(=O)O)c3C3CC3c3cn(C)nn3)c2)c1)C1CCCCC1 (stereo not drawn) [Example 244, 1-(3′-(Cyclohexyl(methoxy)methyl)-[1,1′-biphenyl]-3-yl)-5-(2-(1-methyl-1H-1,2,3-triazol-4-yl)cyclopropyl)-1H-pyrazole-4-carboxylic acid] | 10 to 100 nM | 100 to 1000 nM |  |
| CC1(C)CCc2cnn(-c3cccc(-c4cccc(-n5ncc(C(=O)O)c5C(F)(F)F)n4)c3)c21 [Example 204, 1-(6-(3-(6,6-Dimethyl-5,6-dihydrocyclopenta[c]pyrazol-1(4H)-yl)phenyl)pyridin-2-yl)-5-(trifluoromethyl)-1H-pyrazole-4-carboxylic Acid] | 100 to 1000 nM | 100 to 1000 nM |  |
| Cn1cc(C2CC2c2c(C(=O)O)cnn2-c2cccc(-c3cccc(OCC4CCN(C(=O)OC(C)(C)C)CC4)c3)c2)nn1 (stereo not drawn) [Example 167, 1-(3′-((1-(tert-Butoxycarbonyl)piperidin-4-yl)methoxy)-[1,1′-biphenyl]-3-yl)-5-(2-(1-methyl-1H-1,2,3-triazol-4-yl)cyclopropyl)-1H-pyrazole-4-carboxylic acid] | 10 to 100 nM | 100 to 1000 nM |  |
